Data on three molecules can be found in US12414960B2, “Analogues of oleuropein and oleacein and uses thereof” (Attica Sciences Ltd., priority 2020, dated 2025).

As a reminder, the inhibition is the drop in the measured response relative to a control, in per cent.

The structures appear in SMILES notation.

The subject of series [1] is MIA PaCa-2 pancreatic cancer cells. The experiment in a line: Cell Glo luminescence cell growth assay, MIA PaCa-2. The note with it: Homo sapiens, MIA PaCa-2, 24 h, NS = not statistically significant, read-out: Effectiveness to suppress MIA PaCa-2 cell growth (cell growth inhibition). The format is cell-based, human. An excerpt:
(§1) The CellTiter-Glo® Luminescent Cell Viability Assay (Promega Corporation; Madison, WI) is a homogeneous method of determining the number of viable cells in culture based on quantitation of the ATP present, an indicator of metabolically active cells. The homogeneous assay procedure involves adding the single reagent (CellTiter-Glo® Reagent) directly to cells cultured in serum-supplemented medium. The homogeneous “add-mix-measure” format results in cell lysis and generation of a luminescent signal proportional to the amount of ATP present. The amount of ATP is directly proportional to the number of cells present in culture.
(§2) Cancer cells (3,000 cells/well) were harvested in a 96-well plate. Then, the cancer cells were treated with GS compounds and incubated for 24 hours. The MT Cell Viability Substrate, NanoLuc® Enzyme and cell culture medium was equilibrated to 37° C. The 2× RealTime-Glo™ reagent was prepared by diluting the MT Cell Viability Substrate and NanoLuc® Enzyme in 37° C. cell culture medium to a 2× concentration for each reagent. For example, 1 mL of 2× RealTime-Glo™ reagent was prepared by adding 2 μL of MT Cell Viability Substrate, 1,000×, and 2 μL of NanoLuc® Enzyme, 1,000×, to 996 μL of cell culture medium to form the 2× RealTime-Glo™ reagent. Then, an equal volume of 2× RealTime-Glo™ reagent was added to the cancer cells. The cells were kept for ˜20 minutes in the cell culture incubator and then luminescence was measured by using a plate-reading luminometer.
MIA PaCa-2 is a human pancreatic ductal adenocarcinoma cell line derived from the carcinoma of a person.
(§3) The effects of exemplary compounds on cancer cell lines and one non-tumorigenic cell line (control) were investigated using a high throughput screening assay. More specifically, the effects of the GS compounds on cell growth was evaluated by the XTT assay for cell lines HepG2, HeLa, MCF7 ER+, MDA-MB-231, and MKN-45, and by the Cell Glo luminescence assay for cell lines MIA PaCa-2, HCT-116, MCF-10A, and PANC-1.

The subject of series [2] is HeLa cervical cancer cells. The experiment in a line: XTT cell growth assay, HeLa. The note with it: Homo sapiens, HeLa, 24 h, NS = not statistically significant, read-out: Effectiveness to suppress HeLa cell growth (cell growth inhibition). The format is cell-based, human.
From the text: (§4) The XTT assay is used to measure cellular metabolic activity as an indicator of cell viability, proliferation and cytotoxicity. This non-radioactive, colorimetric assay system was first described by Scudiero, et al. in 1988 (Paull, Kenneth D. et al., J Heterocycl Chem, 1988, 25: 911-914; Scudiero, Dominic A. et al., Cancer Res, 1988, 48: 4827-4833) and improved in subsequent years by several other investigators (Weislow, Owen S. et al., J Natl Cancer Inst, 1989, 81(8): 577-586; Roehm, N. W. et al., J Immunol Methods, 1991, 142: 257-265).
(§5) The XTT assay is based on the reduction of a yellow tetrazolium salt (sodium 3′-[1-(phenylaminocarbonyl)-3,4-tetrazolium]-bis (4-methoxy6-nitro) benzene sulfonic acid hydrate or XTT) to an orange formazan dye by metabolically active cells (FIG. 8). The formazan dye formed is soluble in aqueous solutions and is directly quantified using a scanning multiwell spectrophotometer (ELISA reader). An increase in number of living cells results in an increase in the overall activity of mitochondrial dehydrogenases in the sample. This increase directly correlates to the amount of orange formazan formed, as monitored by the absorbance. Reduced number of living cells leads to reduced metabolism of quaternary salt and therefore reduced absorption.
(§6) Cell viability was assessed using the XTT assay kit (Roche, Mannheim, Germany) as described previously (Kouka, Paraskevi et al., Oxid Med Cell Longev. 2019, Article ID 1870965). Briefly, cancer cells per well were cultured in a 96-well plate in Dulbecco's modified Eagle's medium (DMEM). Following a 24 h incubation, 5, 10 and 50 μM of the tested GS compound was diluted in a serum-free DMEM and administered for 24 h. Subsequently, 50 μL of the XTT reagent (50:1) was added to each well. After 4 h of incubation, the absorbance was monitored at 450 nm and also at 630 nm as a reference wavelength in a BioTek ELx800 microplate reader (BioTek Instruments Inc., Winooski, VT, USA). As a negative control, samples containing serum-free DMEM only were used.
HeLa is a human immortal cell line used in scientific research. It is the oldest and most commonly used human cell line. The line was derived from cervical cancer cells taken on Feb. 8, 1951 from Henrietta Lacks, a patient who died of cancer on Oct. 4, 1951.
as §3

The test system of series [3] is MCF-7 ER+ breast cancer cells. Briefly: XTT cell growth assay, MCF-7 ER+. The format is cell-based, human. The note with it: Homo sapiens, MCF7, 24 h, NS = not statistically significant, read-out: Effectiveness to suppress MCF7 cell growth (cell growth inhibition).
From the text: as §4, §5, §6
MCF-7 ER+ is a human breast cancer cell line isolated in 1970 from a person. Prior to MCF-7, it was not possible for cancer researchers to obtain a mammary cell line that was capable of living longer than a few months.
as §3
(Formazan colour is commonly taken as a measure of viable cells.)

In series [4] the test system is MDA-MB-231 triple negative breast cancer cells. The experiment in a line: XTT cell growth assay, MDA-MB-231. The note with it: Homo sapiens, MDA-MB-231, 24 h, NS = not statistically significant, read-out: Effectiveness to suppress MDA-MB-231 cell growth (cell growth inhibition). The format is cell-based, human.
From the text: as §4, §5, §6
MDA-MB-231 is a human epithelial breast cancer cell line that was established from a pleural effusion of a person with a metastatic mammary adenocarcinomal and is one of the most commonly used breast cancer cell lines in medical research laboratories.
as §3

Series [5] concerns MKN-45 gastric cancer cells. Briefly: XTT cell growth assay, MKN-45. The class given is cell-based, human. The conditions noted are these: Homo sapiens, MKN-45, 24 h, NS = not statistically significant, read-out: Effectiveness to suppress MKN-45 cell growth (cell growth inhibition).
From the text: as §4, §5, §6
MKN-45 is a human gastric adenocarcinoma, established from the poorly differentiated adenocarcinoma of the stomach (medullary type) of a person.
as §3

Series [6] concerns HCT-116 colon cancer cells. Briefly: Cell Glo luminescence cell growth assay, HCT-116. The class given is cell-based, human. The note with it: NS = not statistically significant; for inhibition at 1 µM: Homo sapiens, HCT-116, 24 h, read-out: Effectiveness to suppress HCT-116 cell growth (cell growth inhibition).
From the text: as §1, §2
HCT-116 is a human colorectal cancer cell lines that has a mutation in RAS proto-oncogene.
as §3

The nature of series [7]: Deoxyribose degradation assay (hydroxyl radical scavenging). The class given is biochemical. The note with it: NS = not statistically significant. The procedure: The hydroxyl radical (OH.) is an extremely reactive in biological systems and has been implicated as highly damaging species in free radical pathology, capable of damaging biomolecules of the living cells. These radical combines with nucleotides in DNA and cause strand breakage leading to carcinogenesis, mutagenesis and cytotoxicity. Hydroxyl radical (OH.) scavenging capacity of an extract is directly related to its antioxidant activity.
The effect of extracts on hydroxyl radicals was assayed by using the deoxyribose method. 2-Deoxyribose is degraded on exposure to hydroxyl radicals generated by Fenton's reaction. The ability to neutralize the OH. is estimated as the rate of inhibition of the oxidation of 2-deoxyribose by the OH. (FIG. 5).
The measurement of the hydroxyl radical scavenging activity was evaluated for each of the GS compound by evaluating the pink chromogen absorption at 532 nm by spectrophotometry as described previously (Perjesi, Pal et al., Open Med Chem J., 2011, 5: 61-67

The next series relates to HepG2 liver cancer cells. Briefly: XTT cell growth assay, HepG2. The note with it: Homo sapiens, HepG2, 24 h, NS = not statistically significant, read-out: Effectiveness to suppress HepG2 cell growth (cell growth inhibition). The format is cell-based, human.
From the text: as §4, §5, §6
Hep G2 (or HepG2) is a human liver cancer cell line. Hep G2 is an immortal cell line which was derived from the liver tissue of an adolescent with a well-differentiated hepatocellular carcinoma. Hep G2 cells are a suitable in vitro model system for the study of polarized human hepatocytes.
as §3

A further series relates to pACLY (S455). The experiment in a line: ELISA of pACLY (S455) / ACLY enzymatic activity in PANC-1 cells. The format is cell-based, human. The note with it: 5 μM. The procedure:
ELISA assay was used to evaluate the effect of GS compounds on protein activity levels in PANC-1 cancer cells. PANC-1 cells were serum-starved overnight and then treated with rIGF1 (100 ng/mL) for 24 hours, with or without GS27 (5 μM). The levels of the following proteins were evaluated by ELISA assay: a) p70 S6 (T389) (cat no. 54164C, Cell Signaling); b) pAKT (S473), (cat no. 80895, Cell Signaling); c) pACLY (S455), (cat no. okag1672, Avivasysbio); d) pAMPK (T172) (cat no. 7959C, Cell Signaling) and e) p65/NFKB (S536), (cat no. 7173, Cell Signaling).
PANC-1 is a human pancreatic ductal adenocarcinoma cell line derived from the carcinoma of a person.
The molecular mechanism of action of GS27, a compound that has exerted potent anti-cancer activity in different cancer cell lines including pancreatic cancer cells, was investigated. Oleacein has been implicated to have anti-inflammatory and metabolic effects, thus the potential effects of GS27 in different metabolic and inflammatory pathways were evaluated. Specifically, the protein levels of p70 S6 (T389), pAKT (S473), pACLY (S455), pAMPK (T172) and p65/NFKB (S536) were evaluated by ELISA assay in PANC-1 pancreatic cancer cells treated with 5 μM GS27. GS27 reduced p70 S6 and AKT phosphorylation levels, while it increased AMPK phosphorylation.
The effects of different GS compounds on ACLY enzymatic activity were evaluated by ELISA assay in PANC-1 pancreatic cancer cells. […] This finding is unexpected, since GS21 has a very similar structure with GS27, with the only difference being the presence of an oxygen atom in ester GS21 instead of a sulfur atom in thioester GS27.
(In general: An ELISA detects its analyte on a solid surface through an enzyme-linked reagent.)

`C/C=C1/[C@H](OC2OC(CO)C(O)C(O)C2O)OC=C(C(=O)O)[C@H]1CC(=O)OCCOc1ccccc1` (stereo in doubt) [GS10, (2S,4S,E)-3-ethylidene-4-(2-oxo-2-(2-phenoxyethoxy)ethyl)-2-{[(2R,3S,4R,5R,6S)-3,4,5-trihydroxy-6-(hydroxymethyl)tetrahydro-2H-pyran-2-yl]oxy}-3,4-dihydro-2H-pyran-5-carboxylic acid]: the inhibition at 50 µM is 22% in series [1]; 33.5% in [2]; 58.7% in series [3]; 14% in series [4]; 31.9% in [5]. Besides, the “Effectiveness to suppress HCT-116 cell growth (cell growth inhibition)” value in series [6] (1 uM, 24 h) is reported as “suppressive activity”. Besides, the inhibition at 1 µM in [6] amounted to 25.7%.

`C/C=C(/C=O)[C@@H](CC=O)CC(=O)OCCC1CCCCC1` [GS22, 2-cyclohexylethyl (S,E)-4-formyl-3-(2-oxoethyl)hex-4-enoate]: in series [7], the “Deoxyribose Degradation Assay IC50” value turned out to be 16.8 μg extract/mL. Besides, the inhibition at 50 µM was determined as 28% in series [1]; 66.8% in the series with HepG2 liver cancer cells; 48.6% in series [2]; 48% in [4]; 35.8% in series [5].

For `C/C=C(/C=O)[C@@H](CC=O)CC(=O)OCCc1ccccc1` [GS21, (35,4E)-4-formyl-3-(2-oxoethyl)-4-hexenoic acid 2-phenylethyl ester], the “Deoxyribose Degradation Assay IC50” value in [7] came to 14.4 μg extract/mL. Besides, the inhibition at 50 µM amounted to 75.8% in series [2], 66% in [3], 52.5% in series [4] and 49.4% in [5]. In addition, the inhibition at 1 µM in series [6] was determined as 21.5%. In the series with pACLY (S455), the “ACLY enzymatic activity (ELISA)” value is recorded as “small effect”.
